The values that follow come from patent publication US20100330126A1, “Attenuated malaria blood-stage vaccine” (priority 2009, published 2010).

What all share (type): biochemical
One data set has as its target T1, P. falciparum PNP (Plasmodium falciparum, UniProt Q8I3X4).
T1 sequence (Q8I3X4 1-245): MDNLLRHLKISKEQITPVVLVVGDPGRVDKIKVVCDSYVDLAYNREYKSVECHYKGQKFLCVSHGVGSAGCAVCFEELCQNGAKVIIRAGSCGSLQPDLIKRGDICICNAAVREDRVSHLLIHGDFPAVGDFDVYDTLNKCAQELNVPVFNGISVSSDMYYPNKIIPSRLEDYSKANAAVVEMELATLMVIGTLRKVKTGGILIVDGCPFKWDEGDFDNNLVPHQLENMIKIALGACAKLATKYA
Put plainly: Phosphorylase activity assay, kinetic constants of PfPNP. The note with it: substrate of P. falciparum PNP. The procedure: (§1) Enzymatic Assays and Determination of Kinetic Constants. All phosphorylase activity assays were performed with purified enzyme in 50 mM KPO4, pH 7.4 as described^1. Briefly, phosphorylysis of inosine, 2′-deoxyinosine, and 5′-methylthioinosine was measured in a coupled assay with 115 milliunits/ml xanthine oxidase to convert hypoxanthine into uric acid. Uric acid formation was followed by spectrophotometric measurement at 293 nm (E293=12.9 mM^−1 cm^−1). Phosphorylysis of guanosine to guanine was monitored by measuring the disappearance of guanosine at 258 nm (E258=5.2 mM^−1 cm^−1). Adenosine and 5′-methylthioadenosine phosphorylase activities were measured by following the disappearance of the substrate at 265 nm (E256=1.9 mM^−1 cm^−1). Uridine phosphorylase activity was measured by following the conversion of uridine to uracil at 272 nm (E260=2.9 mM^−1 cm^−1). The Michaelis constant Km was determined as the substrate concentration at ½ the maximum velocity. The kcat was determined for each substrate by fits of substrate saturation data to the Michaelis-Menten equation. Values for kcat assume one catalytic site per subunit and are expressed as moles of product per second per mole of subunit.

In the next data set the test system is P. yoelii PNP. Description: Phosphorylase activity assay, kinetic constants of recombinant PyPNP. The conditions noted are these: for Km / kcat: substrate of P. yoelii PNP, 50 mM KPO4, pH 7.4.
Source text: Expression, Purification, and Characterization of PyPNP. Recombinant PyPNP was expressed with a C-terminal 6×His tag and the c-myc epitope and purified from induced bacterial culture by nickel affinity chromatography under native conditions. Like PfPNP, recombinant PyPNP elutes from gel filtration chromatography as a single peak consisting of homohexameric protein (≈180 kDa; data not shown). On a denatured SDS-PAGE gel, the protein ran as a single band with a molecular mass of 29.94 kDa. […] The catalytic efficiencies (kcat/Km) of PyPNP for these substrates were very similar to those observed in PfPNP (Table 2).
Cloning and Expression of P. yoelii PNP. PyPNP was identified as a protein of 244 amino acids and 26.943 kDa by protein sequence homology to PfPNP (gene PY04622; PlasmoDB.org). The PyPNP open reading frame (ORF) sequence was amplified by PCR from genomic DNA of P. yoelii strain YM with primers PyPNP-F (5′-[…]-3′) (SEQ ID NO:8) and PyPNP-R (5′-[…]-3′) (SEQ ID NO:9). The 729 by PCR product was ligated into a pTrcHis2-TOPO vector (Invitrogen) and expressed in E. coli strain TOP 10. Recombinant PyPNP with a C-terminal 6×His tag and the c-myc epitope was induced with 1 mM IPTG at 37° C. for 10 h and purified by nickel chromatography. The purified PyPNP was >95% homogeneous based on denaturing polyacrylamide gel electrophoresis and staining with Coomassie blue. Protein concentration was measured by Bradford protein assay (Bio-Rad).
as §1

Substrate in data set [1]: Nc1nc2c(ncn2[C@@H]2O[C@H](CO)[C@@H](O)[C@H]2O)c(=O)[nH]1
Description: Phosphorylase activity assay, kinetic constants of PfPNP. The conditions noted are these: other: substrate of P. falciparum PNP; pH 7.4. The procedure: as §1

Substrate in data set [2]: OC[C@H]1O[C@@H](n2cnc3c(O)ncnc32)[C@H](O)[C@@H]1O
The description is as above. The note with it: other: substrate of P. falciparum PNP; pH 7.4. As to the method:
as §1

Substrate in data set [3]: OC[C@H]1O[C@@H](n2cnc3c(O)ncnc32)C[C@@H]1O
The data set is described as above. The conditions noted are these: other: substrate of P. falciparum PNP; pH 7.4. As to the method:
as §1

In general, Km refers to the substrate concentration at which the rate is half of its maximum. A word on the kcat: it is the maximal rate divided by the concentration of active sites. In the case of `CSc1ncnc2c1ncn2[C@@H]1O[C@H](CO)[C@@H](O)[C@H]1O` [Methylthioinosine], on P. falciparum PNP, the Km amounted to 10.8 ± 0.9 µM and the kcat worked out at 2.6 ± 0.8 s⁻¹. For the same molecule, in the data set on P. yoelii PNP, the Km stood at 5 ± 0.4 µM and the kcat was 3.4 ± 0.1 s⁻¹.

As for `OC[C@H]1O[C@@H](n2cnc3c(O)ncnc32)C[C@@H]1O` [2′-deoxyinosine], in the data set on P. yoelii PNP, the Km came out at 79 ± 10 µM and the kcat was 1.2 ± 0.1 s⁻¹.

Take `OC[C@H]1O[C@@H](n2cnc3c(O)ncnc32)[C@H](O)[C@@H]1O` [Inosine]: in the data set on P. yoelii PNP, the Km amounted to 8.6 ± 1.5 µM and the kcat amounted to 3.5 ± 0.1 s⁻¹.

Regarding `Nc1nc2c(ncn2[C@@H]2O[C@H](CO)[C@@H](O)[C@H]2O)c(=O)[nH]1` [Guanosine], in the data set on P. yoelii PNP, the Km came out at 8.9 ± 1.6 µM and the kcat worked out at 3.8 ± 0.2 s⁻¹.

Regarding `O=c1ccn([C@@H]2O[C@H](CO)[C@@H](O)[C@H]2O)c(=O)[nH]1` [uridine], the “PyPNP activity with substrate” value in the data set on P. yoelii PNP (data not shown) is “no detectable activity”.

B1: P. falciparum PNP (Plasmodium falciparum 3D7) (protein)
chain: MDNLLRHLKISKEQITPVVLVVGDPGRVDKIKVVCDSYVDLAYNREYKSVECHYKGQKFLCVSHGVGSAGCAVCFEELCQNGAKVIIRAGSCGSLQPDLIKRGDICICNAAVREDRVSHLLIHGDFPAVGDFDVYDTLNKCAQELNVPVFNGISVSSDMYYPNKIIPSRLEDYSKANAAVVEMELATLMVIGTLRKVKTGGILIVDGCPFKWDEGDFDNNLVPHQLENMIKIALGACAKLATKYA
What is called kcat/Km is the turnover number divided by the Michaelis constant. B1: in data set [1], the Km was 9.4 ± 1.2 µM, the kcat was determined as 2.6 ± 0.5 s⁻¹ and the kcat/Km worked out at 280000 M⁻¹ s⁻¹. For the same molecule, in data set [2], the Km worked out at 4.7 ± 0.9 µM, the kcat turned out to be 1.1 ± 0.2 s⁻¹ and the kcat/Km turned out to be 230000 M⁻¹ s⁻¹. In data set [3], the Km came out at 91 ± 35 µM, the kcat worked out at 0.9 ± 0.3 s⁻¹ and the kcat/Km is 9800 M⁻¹ s⁻¹.
